Assay results taken from article PMC4450769, “Placement of oppositely charged aminoacids at a polypeptide termini determines the voltage-controlled braking of polymer transport through nanometer-scale pores” (Scientific Reports, 2015).

System: Staphylococcus aureus α-hemolysin (α-HL) pore
Type: biochemical

Ac-RRRRRRAAAAAARRRRRR- NH 2 [CP2, control peptide construct with net charge of ~ +6 e− at both N- and C-termini at neutral pH]
capture by the pore as a function of potential polarity (5 µM): captured by the pore only for positive potentials | association with and block of the α-HL pore at negatively applied potential (pH 7.3): does not associate and block
